Common to all, as to format: biochemical
One assay concerns the target AKT-3 (Homo sapiens, UniProt Q9Y243). In words: AKT-3 inhibition assay (standard coupled enzyme assay). As to conditions: 170 μM ATP, 200 μM peptide, 45 nM AKT, 30° C.
A further assay deals with T1, PDK-1 (Homo sapiens, UniProt O15530).
T1 sequence (O15530 1-556): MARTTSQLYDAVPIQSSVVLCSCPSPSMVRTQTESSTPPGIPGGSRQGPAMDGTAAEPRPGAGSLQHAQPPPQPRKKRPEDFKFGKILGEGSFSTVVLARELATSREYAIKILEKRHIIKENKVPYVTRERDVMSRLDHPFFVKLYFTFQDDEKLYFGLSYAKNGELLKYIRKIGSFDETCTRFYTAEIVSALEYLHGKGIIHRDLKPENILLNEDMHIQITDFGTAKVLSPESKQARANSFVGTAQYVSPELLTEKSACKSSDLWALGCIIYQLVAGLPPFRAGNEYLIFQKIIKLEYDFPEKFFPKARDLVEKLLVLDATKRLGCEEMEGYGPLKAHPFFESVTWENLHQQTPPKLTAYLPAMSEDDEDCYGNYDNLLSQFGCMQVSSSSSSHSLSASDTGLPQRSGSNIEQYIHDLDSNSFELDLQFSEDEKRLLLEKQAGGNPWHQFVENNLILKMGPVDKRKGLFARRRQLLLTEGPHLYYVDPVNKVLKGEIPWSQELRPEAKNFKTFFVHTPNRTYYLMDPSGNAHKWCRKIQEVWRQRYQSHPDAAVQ
In words: PDK-1 inhibition assay (radioactive-phosphate incorporation). As to conditions: 40 μM ATP, 65 μM PDKtide, 25 nM PDK-1, 30° C.

Another assay addresses PKA (Homo sapiens, UniProt P17612). In words: PKA inhibition assay (standard coupled enzyme assay). As to conditions: 50 μM ATP, 80 μM Kemptide, 18 nM PKA, 30° C. The procedure:
Compounds were screened for their ability to inhibit PKA using a standard coupled enzyme assay (Fox et al., Protein Sci., (1998) 7, 2249). Assays were carried out in a mixture of 100 mM HEPES 7.5, 10 mM MgCl2, 25 mM NaCl, 1 mM DTT and 3% DMSO. Final substrate concentrations in the assay were 50 μM ATP (Sigma Chemicals) and 80 μM peptide (Kemptide, American Peptide, Sunnyvale, Calif.). Assays were carried out at 30° C. and 18 nM PKA. Final concentrations of the components of the coupled enzyme system were 2.5 mM phosphoenolpyruvate, 300 μM NADH, 30 μg/ml pyruvate kinase and 10 μg/ml lactate dehydrogenase.
An assay stock buffer solution was prepared containing all of the reagents listed above, with the exception of ATP, and the test compound of interest. 55 μl of the stock solution was placed in a 96 well plate followed by addition of 2 μl of DMSO stock containing serial dilutions of the test compound (typically starting from a final concentration of 5 μM). The plate was preincubated for 10 minutes at 30° C. and the reaction initiated by addition of 5 μl of ATP (final concentration 50 μM). Initial reaction rates were determined with a Molecular Devices SpectraMax Plus plate reader over a 15 minute time course. IC50 and Ki data were calculated from non-linear regression analysis using the Prism software package (GraphPad Prism version 3.0a for Macintosh, GraphPad Software, San Diego Calif., USA).

Values joined by “and” are separate entries in the source; they are usually repeats but may differ in a detail not shown here. Identical values can stand only once.

Sequence of AKT-3 (Q9Y243 whole entry): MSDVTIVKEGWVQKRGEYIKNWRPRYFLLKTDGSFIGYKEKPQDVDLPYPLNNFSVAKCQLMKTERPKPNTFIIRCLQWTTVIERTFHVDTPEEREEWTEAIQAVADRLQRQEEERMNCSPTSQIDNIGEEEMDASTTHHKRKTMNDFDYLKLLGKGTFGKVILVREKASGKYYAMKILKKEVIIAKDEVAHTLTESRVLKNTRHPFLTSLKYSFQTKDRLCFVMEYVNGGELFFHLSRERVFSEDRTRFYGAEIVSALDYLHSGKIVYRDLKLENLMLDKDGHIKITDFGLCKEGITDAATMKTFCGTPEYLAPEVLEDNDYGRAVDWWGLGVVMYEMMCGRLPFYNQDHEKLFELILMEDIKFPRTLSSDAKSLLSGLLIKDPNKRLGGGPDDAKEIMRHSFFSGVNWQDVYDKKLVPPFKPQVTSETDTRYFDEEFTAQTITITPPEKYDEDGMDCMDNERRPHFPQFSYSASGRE
Description for PDK-1: Compounds were screened for their ability to inhibit PDK-1 using a radioactive-phosphate incorporation assay (Pitt and Lee, J. Biomol. Screen., (1996) 1, 47). Assays were carried out in a mixture of 100 mM HEPES (pH 7.5), 10 mM MgCl2, 25 mM NaCl, 2 mM DTT. Final substrate concentrations in the assay were 40 μM ATP (Sigma Chemicals) and 65 μM peptide (PDKtide, Upstate, Lake Placid, N.Y.). Assays were carried out at 30° C. and 25 nM PDK-1 in the presence of ˜27.5 nCi/μL of [γ-^32P]ATP (Amersham Pharmacia Biotech, Amersham, UK). An assay stock buffer solution was prepared containing all of the reagents listed above, with the exception of ATP, and the test compound of interest. 15 μl of the stock solution was placed in a 96 well plate followed by addition of 1 μl of 0.5 mM DMSO stock containing the test compound (final compound concentration 25 μM, final DMSO concentration 5%). The plate was preincubated for about 10 minutes at 30° C. and the reaction initiated by addition of 4 μl ATP (final concentration 40 μM).
The reaction was stopped after 10 minutes by the addition of 100 μL 100 mM phosphoric acid, 0.01% Tween-20. A phosphocellulose 96 well plate (Millipore, Cat no. MAPHNOB50) was pretreated with 100 μL 100 mM phosphoric acid, 0.01% Tween-20 prior to the addition of the reaction mixture (100 μL). The spots were left to soak for at least 5 minutes, prior to wash steps (4×200 μL 100 mM phosphoric acid, 0.01% Tween-20). Alter drying, 20 μL Optiphase ‘SuperMix’ liquid scintillation cocktail (Perkin Elmer) was added to the well prior to scintillation counting (1450 Microbeta Liquid Scintillation Counter, Wallac).

The term Ki denotes the equilibrium dissociation constant of an inhibitor or competing ligand from its target. Consider `NCCC(C(=O)Nc1ccc2[nH]nc(NC(=O)c3cc(F)cc(F)c3)c2c1)c1ccc(Cl)c(Cl)c1` (stereo not drawn) [Compound I-201], for which the inhibition constant (Ki) was less than 1000 nM at AKT-3, more than 3 µM at PDK-1 and less than 1000 nM on PKA.
For the molecule `NCCC(C(=O)Nc1ccc2[nH]nc(NC3CCCCC3)c2c1)c1ccc(Cl)c(Cl)c1` (stereo not drawn) [Compound I-159], the values for the Ki at AKT-3, on PDK-1 and at PKA were 1000 to 10000 nM, more than 3 µM and less than 1000 nM, respectively.
`N#Cc1ccc(C(=O)Nc2n[nH]c3ccc(NC(=O)C(CCN)c4ccc(Cl)c(Cl)c4)cc23)cc1` (stereo not drawn) [Compound I-174]: the Ki on AKT-3 was less than 1000 nM; on PDK-1, less than 1 µM; on PKA it was less than 1000 nM.
Consider `NCCC(C(=O)Nc1ccc2[nH]nc(CCc3ccccc3)c2c1)c1ccc(Cl)c(Cl)c1` (stereo not drawn) [Compound I-123], for which the Ki on AKT-3 is 1000 to 10000 nM; at PDK-1 it was less than 1 µM; on PKA it was less than 1000 nM.
As for `CN(C)CC(C(=O)Nc1ccc2[nH]ncc2c1)c1ccc(Cl)c(Cl)c1` (stereo not drawn) [Compound I-227], the inhibition constant (Ki) is less than 1000 nM at AKT-3, more than 3 µM on PDK-1 and less than 1000 nM on PKA.
For the molecule `Cc1n[nH]c2ccc(NC(=O)C(CCN)c3ccc(Cl)cc3F)cc12` (stereo not drawn) [Compound I-132], the Ki on AKT-3 was less than 1000 nM; at PDK-1, less than 1 µM; on PKA it was less than 1000 nM.
Consider `NCCC(C(=O)Nc1ccc2[nH]ncc2c1)c1ccccc1` (stereo not drawn) [Compound I-98], for which the results for the Ki on AKT-3, on PDK-1 and at PKA were less than 1000 nM, 1 to 3 µM and less than 1000 nM, respectively.
For `NCCC(C(=O)Nc1ccc2[nH]nc(Nc3cccc(F)c3)c2c1)c1ccccc1` (stereo not drawn) [Compound I-1039], the Ki at AKT-3 was 1000 to 10000 nM; on PDK-1, more than 3 µM; at PKA it was less than 1000 nM.
In the case of `Cc1n[nH]c2ccc(NC(=O)C(CCN)c3ccc(Cl)s3)cc12` (stereo not drawn) [Compound I-139], the inhibitory constant (Ki) on AKT-3 was less than 1000 nM; at PDK-1 it was less than 1 µM; on PKA, less than 1000 nM.
As to `NCC(C(=O)Nc1ccc2[nH]ncc2c1)c1ccc(Cl)c(Cl)c1` (stereo not drawn) [Compound I-99], the Ki on AKT-3 was less than 1000 nM; at PDK-1, more than 3 µM; on PKA it was less than 1000 nM.
Take `N#Cc1cccc(Nc2n[nH]c3ccc(NC(=O)C(CCN)c4ccc(Cl)c(Cl)c4)cc23)c1` (stereo not drawn) [Compound I-165]: the values for the Ki at AKT-3, on PDK-1 and at PKA were less than 1000 nM, less than 1 µM and less than 1000 nM, respectively.
As to `NCCC(C(=O)Nc1ccc2[nH]ncc2c1)c1ccc2ccccc2c1` (stereo not drawn) [Compound I-102], the inhibitory constant (Ki) at AKT-3 was less than 1000 nM; on PDK-1, more than 3 µM; on PKA, less than 1000 nM.
For `NC[C@@H](C(=O)Nc1ccc2[nH]ncc2c1)c1ccc(Cl)c(Cl)c1` [Compound I-247], the values for the Ki at AKT-3, at PDK-1 and at PKA were less than 1000 nM, more than 3 µM and less than 1000 nM, respectively.
For `N#Cc1cccc(C(=O)Nc2n[nH]c3ccc(NC(=O)C(CCN)c4ccc(Cl)c(Cl)c4)cc23)c1` (stereo not drawn) [Compound I-175], the values for the Ki at AKT-3, at PDK-1 and at PKA were less than 1000 nM, 1 to 3 µM and less than 1000 nM, respectively.
For `Cc1n[nH]c2ccc(NC(=O)C(CN)c3ccc(Cl)c(Cl)c3)cc12` (stereo not drawn) [Compound I-233], the Ki was less than 1000 nM on AKT-3; 1 to 3 µM and > 3 µM at PDK-1; less than 1000 nM on PKA.
Consider `Cc1cccc(C(=O)Nc2n[nH]c3ccc(NC(=O)C(CCN)c4ccc(Cl)c(Cl)c4)cc23)c1` (stereo not drawn) [Compound I-185], for which the Ki at AKT-3 is less than 1000 nM; on PDK-1, 1 to 3 µM; at PKA, less than 1000 nM.
For `NCC(C(=O)Nc1ccc2[nH]nc(-c3ccccc3)c2c1)c1ccc(Cl)c(Cl)c1` (stereo not drawn) [Compound I-231], the Ki at AKT-3 is less than 1000 nM; at PDK-1 it was less than 1 µM; at PKA it was less than 1000 nM.
As to `COC(=O)c1ccc(-c2n[nH]c3ccc(NC(=O)C(CCN)c4ccccc4)cc23)cc1` (stereo not drawn) [Compound I-235], the results for the Ki at AKT-3, on PDK-1 and on PKA were 1000 to 10000 nM, less than 1 µM and less than 1000 nM, respectively.
Taken in the same sequence, the figures for `NCCC(C(=O)Nc1ccc2[nH]nc(Nc3cccc(OCc4ccccc4)c3)c2c1)c1ccc(Cl)c(Cl)c1` (stereo not drawn) [Compound I-161] were less than 1000 nM, more than 3 µM and less than 1000 nM.
With `N#Cc1ccc(Nc2n[nH]c3ccc(NC(=O)C(CCN)c4ccc(Cl)c(Cl)c4)cc23)cc1` (stereo not drawn) [Compound I-164], the results for the Ki at AKT-3, on PDK-1 and on PKA were less than 1000 nM, 1 to 3 µM and less than 1000 nM, respectively.
As to `NCCC(C(=O)Nc1ccc2[nH]nc(NC(=O)c3ccc(-c4ccccc4)cc3)c2c1)c1ccc(Cl)c(Cl)c1` (stereo not drawn) [Compound I-172], the Ki at AKT-3 is less than 1000 nM; at PDK-1, less than 1 µM; on PKA it was less than 1000 nM.
For the molecule `NCCC(C(=O)Nc1ccc2[nH]ncc2c1)c1c(F)ccc(Cl)c1F` (stereo not drawn) [Compound I-109], the Ki on AKT-3 is less than 1000 nM; at PDK-1 it was less than 1 µM; at PKA, less than 1000 nM.
In the case of `NCC[C@@H](C(=O)Nc1ccc2[nH]nc(NC(=O)c3cccc(Cl)c3)c2c1)c1cccc(Cl)c1F` [Compound I-177], the values for the Ki at AKT-3, at PDK-1 and at PKA were less than 1000 nM, 1 to 3 µM and less than 1000 nM, respectively.
Regarding `NCCC(C(=O)Nc1ccc2[nH]nc(NC(=O)c3cc(Cl)cc(Cl)c3)c2c1)c1ccc(Cl)c(Cl)c1` (stereo not drawn) [Compound I-184], the Ki is less than 1000 nM at AKT-3, more than 3 µM at PDK-1 and less than 1000 nM on PKA.
`NCCC(C(=O)Nc1ccc2[nH]nc(NC(=O)c3ccccc3Cl)c2c1)c1ccc(Cl)c(Cl)c1` (stereo not drawn) [Compound I-180]: the Ki on AKT-3 is less than 1000 nM; on PDK-1, 1 to 3 µM; at PKA, less than 1000 nM.
As to `CNCCC(C(=O)Nc1ccc2[nH]ncc2c1)c1ccc(Cl)c(Cl)c1` (stereo not drawn) [Compound I-153], the Ki was less than 1000 nM on AKT-3, more than 3 µM at PDK-1 and less than 1000 nM at PKA.
In the case of `NCCC(C(=O)Nc1ccc2[nH]nc(-c3ccc(F)cc3)c2c1)c1ccc(Cl)c(Cl)c1` (stereo not drawn) [Compound I-234], the Ki at AKT-3 was less than 1000 nM; on PDK-1, less than 1 µM; at PKA, less than 1000 nM.
Take `NCCC(C(=O)Nc1ccc2[nH]nc(Nc3ccc(Br)cc3)c2c1)c1ccc(Cl)c(Cl)c1` (stereo not drawn) [Compound I-166]: the figures for the Ki on AKT-3, on PDK-1 and at PKA were less than 1000 nM, 1 to 3 µM and less than 1000 nM, respectively.
Regarding `NCC[C@H](C(=O)Nc1ccc2[nH]nc(NC(=O)c3cccs3)c2c1)c1ccccc1` [Compound I-1044], the Ki was less than 1000 nM on AKT-3, less than 1 µM at PDK-1 and less than 1000 nM at PKA.
With `Cc1n[nH]c2ccc(NC(=O)C(CCN)c3ccc(Cl)c(Cl)c3O)cc12` (stereo not drawn) [Compound I-133], the Ki on AKT-3 is less than 1000 nM; at PDK-1, more than 3 µM; on PKA it was less than 1000 nM.
Take `NCCC(C(=O)Nc1ccc2[nH]nc(Nc3ccc(Cl)cc3)c2c1)c1ccc(Cl)c(Cl)c1` (stereo not drawn) [Compound I-163]: the inhibitory constant (Ki) on AKT-3 is less than 1000 nM; at PDK-1 it was more than 3 µM; on PKA, less than 1000 nM.
Consider `CNc1n[nH]c2ccc(NC(=O)C(CCN)c3ccc(Cl)c(Cl)c3)cc12` (stereo not drawn) [Compound I-134], for which the values for the inhibition constant Ki on AKT-3, on PDK-1 and at PKA were less than 1000 nM, more than 3 µM and less than 1000 nM, respectively.
On to `NCCC(C(=O)Nc1ccc2[nH]nc(NC(=O)c3ccco3)c2c1)c1ccccc1` (stereo not drawn) [Compound I-1041], for which the Ki on AKT-3 is 1000 to 10000 nM; on PDK-1, less than 1 µM; on PKA, less than 1000 nM.

These data come from patent US7041687B2, “Indazole compounds useful as protein kinase inhibitors” (Vertex Pharmaceuticals Incorporated, priority 2002, dated 2006).
